Experiment [1] addresses T1, TthMTA1 (residues 126-372)-Tthp2 crystal complex (Tetrahymena thermophila, UniProt Q22GC0).
T1 construct: gene TTHERM_00704040; N-terminally truncated MTA1 with p2
T1 sequence (Q22GC0 182-428): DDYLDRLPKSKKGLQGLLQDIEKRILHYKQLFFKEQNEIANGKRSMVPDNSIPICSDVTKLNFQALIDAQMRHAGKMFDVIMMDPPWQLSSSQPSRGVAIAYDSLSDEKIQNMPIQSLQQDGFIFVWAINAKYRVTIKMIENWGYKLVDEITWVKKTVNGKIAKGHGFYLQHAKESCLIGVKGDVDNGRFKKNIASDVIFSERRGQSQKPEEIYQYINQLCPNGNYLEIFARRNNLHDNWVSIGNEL
As to the kind of experiment: X-ray crystal structure, soaking. The class given is binding. The settings on record: site in MTA1 MTase domain.

For experiment [2], the target named is T2, TthMTA1 (residues 126–372)-Tthp1-Tthp2 crystal complex (Tetrahymena thermophila, UniProt Q22GC0).
T2 construct: gene TTHERM_00704040; N-terminally truncated MTA1 with p1 and p2; p1 degraded in the crystal, only its HTH domain seen
T2 sequence (Q22GC0 182-428): T1 sequence (Q22GC0 182-428)
As to the kind of experiment: X-ray crystal structure, soaking. The class given is binding. The settings on record: site in MTA1 MTase domain.

In experiment [3] the target is T3, TthMTA1-Ptep2 (ITC) (Tetrahymena thermophila, UniProt Q22GC0).
T3 construct: gene TTHERM_00704040
T3 sequence (Q22GC0 57-428): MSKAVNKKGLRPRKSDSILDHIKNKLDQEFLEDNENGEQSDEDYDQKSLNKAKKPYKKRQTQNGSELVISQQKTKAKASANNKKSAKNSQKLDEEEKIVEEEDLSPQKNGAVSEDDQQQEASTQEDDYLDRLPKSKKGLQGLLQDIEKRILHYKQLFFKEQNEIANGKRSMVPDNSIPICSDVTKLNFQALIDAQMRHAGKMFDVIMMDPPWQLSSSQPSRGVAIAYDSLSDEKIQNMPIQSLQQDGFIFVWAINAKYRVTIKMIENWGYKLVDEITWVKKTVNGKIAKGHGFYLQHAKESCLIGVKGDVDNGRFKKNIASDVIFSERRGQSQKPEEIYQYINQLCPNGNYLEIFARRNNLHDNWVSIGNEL
The experiment is described as follows: isothermal titration calorimetry. Conditions: 25 °C, pH 7.5, 300 mM NaCl, no DNA.

The target of experiment [4] is T4, TthMTA1-TthMTA9-Tthp2 ternary complex (ITC) (Tetrahymena thermophila, UniProt Q22GC0).
T4 construct: gene TTHERM_00704040
T4 sequence (Q22GC0 entry or part of it, one chain of several): as the sequence (Q22GC0 57-428) above
The experiment is described as follows: isothermal titration calorimetry. Conditions: 25 °C, pH 7.5, 300 mM NaCl, no DNA.

In experiment [5] the target is T5, TthMTA1c (MTA1-MTA9-p1-p2 quaternary complex) (Tetrahymena thermophila, UniProt Q22GC0).
T5 construct: gene TTHERM_00704040
T5 sequence (Q22GC0 entry or part of it, one chain of several): as the sequence (Q22GC0 57-428) above
The experiment is described as follows: isothermal titration calorimetry. Conditions: 25 °C, pH 7.5, 300 mM NaCl, no DNA.

Experiment [6] deals with T6, TthMTA1-Tthp1-Tthp2 ternary complex (ITC) (Tetrahymena thermophila, UniProt Q22GC0).
T6 construct: gene TTHERM_00704040
T6 sequence (Q22GC0 entry or part of it, one chain of several): as the sequence (Q22GC0 57-428) above
The experiment is described as follows: isothermal titration calorimetry. Conditions: 25 °C, pH 7.5, 300 mM NaCl, no DNA.

Experiment [7] concerns the target T7, TthMTA1-Tthp2 binary complex (ITC) (Tetrahymena thermophila, UniProt Q22GC0).
T7 construct: gene TTHERM_00704040
The experiment is described as follows: isothermal titration calorimetry. Conditions: 25 °C, pH 7.5, 300 mM NaCl, no DNA.

Experiment [8] addresses Tetrahymena thermophila MTA1 (TthMTA1), untagged (Tetrahymena thermophila). The experiment is described as follows: SEC; Superdex 200 Increase 10/300; purified proteins mixed at equimolar ratio (1:1, 1:1:1 or 1:1:1:1), 60 min on ice; 20 mM Tris pH 7.5, 300 mM NaCl, 2 mM DTT; peak fractions on SDS-PAGE.
Experiment [9] has as its target T8, His6GST-Tthp2.
T8 chain: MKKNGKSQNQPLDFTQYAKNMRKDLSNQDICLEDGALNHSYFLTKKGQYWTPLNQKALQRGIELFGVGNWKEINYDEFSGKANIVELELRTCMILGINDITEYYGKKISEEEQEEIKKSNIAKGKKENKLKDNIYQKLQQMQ
The experiment is described as follows: GST pull-down. The settings on record: chain shown with the change;; parent: 100.

In experiment [10] the target is T9, GST-MTA1 (residues 171-372).
T9 chain: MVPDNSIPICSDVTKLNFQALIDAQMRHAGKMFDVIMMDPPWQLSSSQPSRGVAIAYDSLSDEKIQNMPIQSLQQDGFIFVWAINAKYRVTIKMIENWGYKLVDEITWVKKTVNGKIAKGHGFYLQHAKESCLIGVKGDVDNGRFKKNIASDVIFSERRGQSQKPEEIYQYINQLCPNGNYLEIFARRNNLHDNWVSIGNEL
As to the kind of experiment: GST pull-down. Conditions: chain shown with the change;; parent: 100.

T7 sequence (Q22GC0 entry or part of it, one chain of several): as the sequence (Q22GC0 57-428) above

With `Nc1ncnc2c1ncn2[C@@H]1O[C@H](CSCC[C@H](N)C(=O)O)[C@@H](O)[C@H]1O` [SAH], the “X-ray crystal structure, soaking” value in experiment [1] (1 mM SAH soak) was “further confirmed by our SAM- and SAH-bound MTA1-p2 structures”; in experiment [2] (3.0 Å, 1 mM SAH soak), “the SAH product-bound MTA1-p1-p2 complex by soaking approach”.
Turning to `C[S+](CC[C@H](N)C(=O)O)C[C@H]1O[C@@H](n2cnc3c(N)ncnc32)[C@H](O)[C@@H]1O` (stereo partly drawn) [SAM], the “X-ray crystal structure, soaking” value in [1] (1 mM SAM soak) was “further confirmed by our SAM- and SAH-bound MTA1-p2 structures”; in [2] (3.4 Å, 1 mM SAM soak), “SAM donor-bound MTA1-p1-p2 complex”. For the same molecule, the equilibrium dissociation constant (Kd) in experiment [3] is 67.8 ± 5.45 µM; in experiment [4], 3.64 ± 0.56 µM; in [5], 2.4 ± 0.26 µM; in experiment [6], 14.8 ± 2.71 µM; in experiment [7], 44.6 ± 3.4 µM.
In the case of “Tetrahymena thermophila MTA9 (TthMTA9), untagged (natural protein)”, in experiment [8], the stoichiometry N was 1.

B1: Tetrahymena thermophila MTA1 (TthMTA1), untagged R358A (protein)
chain: MSKAVNKKGLRPRKSDSILDHIKNKLDQEFLEDNENGEQSDEDYDQKSLNKAKKPYKKRQTQNGSELVISQQKTKAKASANNKKSAKNSQKLDEEEKIVEEEDLSPQKNGAVSEDDQQQEASTQEDDYLDRLPKSKKGLQGLLQDIEKRILHYKQLFFKEQNEIANGKRSMVPDNSIPICSDVTKLNFQALIDAQMRHAGKMFDVIMMDPPWQLSSSQPSRGVAIAYDSLSDEKIQNMPIQSLQQDGFIFVWAINAKYRVTIKMIENWGYKLVDEITWVKKTVNGKIAKGHGFYLQHAKESCLIGVKGDVDNGRFKKNIASDVIFSERRGQSQKPEEIYQYINQLCPNGNYLEIFARANNLHDNWVSIGNEL
For the molecule B1, the percent of parent in [9] was 4%.

B2: Paramecium tetraurelia MTA9 (PteMTA9), untagged K218A (protein)
chain: MGKNQRESLRMRLRYNEPGSENKRINYFKLNQGYDITEDDSEYMDEQDSYKAFKKIRKYKTKSKEDKVTCDNLEVLLQWKGSINCQSYETDQKKIVVLKKILGTDLSQYAKGVQGIFIDNLFKKDLKNLDISKKLISNGILFIWSDKSLINEILETMENKGFTYIENLVVVQLSLEQALEELNKHMKIEQTEDAVLDNLDFLQQKVQVKDLILHRPSAVLNQSKQVLIMFRKFDEQKSQLELRHQRTPDVLFDIVNNGKSCLKTKEYIYQTIETLLPKSQLMEIFAQKDQPRKGWISVCENK
Take B2: in [10], the percent of parent was found to be 99%.

(Values after article PMC9174199, “Structural basis for MTA1c-mediated DNA N6-adenine methylation” (Nature Communications, 2022).)
